Measurements reported in the supplement of paper PMC10307832.

How the values were obtained:
Assay in all cases: relative viability (nuclei count vs DMSO), 5 days (fraction); higher = more cells survive
Dabrafenib + Bortezomib = compound: CC(C)(C)c1nc(-c2cccc(NS(=O)(=O)c3c(F)cccc3F)c2F)c(-c2ccnc(N)n2)s1 [Dabrafenib] + CC(C)C[C@H](NC(=O)[C@H](Cc1ccccc1)NC(=O)c1cnccn1)B(O)O [Bortezomib] (partner 0.002 µM)
Procedure, shortened: (§1)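 A single step with final 0.05% Triton X-100, 1% formaldehyde and 1 ug/ml Hoechst fixed the cells and stained nuclei 5 days after treatment. Lung cancer cell lines in 1536-well plates had been treated by pin tool the day after seeding with one drug alone or a fixed anchor-drug dose plus five library-drug doses (not always all listed) in √10 steps, and nuclei were counted on 4× images. Relative viability is the ratio of nuclei in treated wells to nuclei in vehicle wells, taken as the median of duplicate plates.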

Dabrafenib + Pictilisib = compound: CC(C)(C)c1nc(-c2cccc(NS(=O)(=O)c3c(F)cccc3F)c2F)c(-c2ccnc(N)n2)s1 [Dabrafenib] + CS(=O)(=O)N1CCN(Cc2cc3nc(-c4cccc5[nH]ncc45)nc(N4CCOCC4)c3s2)CC1 [Pictilisib] (partner 1 µM)
Procedure, shortened: as §1

Dabrafenib + Olaparib = compound: CC(C)(C)c1nc(-c2cccc(NS(=O)(=O)c3c(F)cccc3F)c2F)c(-c2ccnc(N)n2)s1 [Dabrafenib] + O=C(c1cc(Cc2n[nH]c(=O)c3ccccc23)ccc1F)N1CCN(C(=O)C2CC2)CC1 [Olaparib] (partner 8 µM)
Procedure, shortened: as §1

VX-702 + Dasatinib = compound: NC(=O)c1ccc(N(C(N)=O)c2c(F)cccc2F)nc1-c1ccc(F)cc1F [VX-702] + Cc1nc(Nc2ncc(C(=O)Nc3c(C)cccc3Cl)s2)cc(N2CCN(CCO)CC2)n1 [Dasatinib] (partner 0.075 µM)
Procedure, shortened: as §1

| Cell Line | relative viability (Dabrafenib + Bortezomib; first compound 0.003 µM) | relative viability (Dabrafenib + Bortezomib; first compound 0.009487 µM) | relative viability (Dabrafenib + Bortezomib; first compound 0.03 µM) | relative viability (Dabrafenib + Bortezomib; first compound 0.09487 µM) | relative viability (Dabrafenib + Bortezomib; first compound 0.3 µM) | relative viability (Dabrafenib + Pictilisib; first compound 0.003 µM) | relative viability (Dabrafenib + Pictilisib; first compound 0.009487 µM) | relative viability (Dabrafenib + Pictilisib; first compound 0.03 µM) | relative viability (Dabrafenib + Pictilisib; first compound 0.09487 µM) | relative viability (Dabrafenib + Pictilisib; first compound 0.3 µM) | relative viability (Dabrafenib + Olaparib; first compound 0.003 µM) | relative viability (Dabrafenib + Olaparib; first compound 0.009487 µM) | relative viability (Dabrafenib + Olaparib; first compound 0.03 µM) | relative viability (Dabrafenib + Olaparib; first compound 0.09487 µM) | relative viability (Dabrafenib + Olaparib; first compound 0.3 µM) | relative viability (VX-702 + Dasatinib; first compound 0.02 µM) | relative viability (VX-702 + Dasatinib; first compound 0.2 µM) | relative viability (VX-702 + Dasatinib; first compound 0.6325 µM) | relative viability (VX-702 + Dasatinib; first compound 2 µM) |
| --- | --- | --- | --- | --- | --- | --- | --- | --- | --- | --- | --- | --- | --- | --- | --- | --- | --- | --- | --- |
| LXF-289 | 0.949 | 1.01 | 1.18 | 0.969 | 1.13 | 0.656 | 0.809 | 0.671 | 0.853 | 0.842 | 1.1 | 1.12 | 1.07 | 0.892 | 1.07 | 0.234 | 0.199 | 0.212 | 0.225 |
| NCI-H23 | – | 0.95 | 0.861 | 0.643 | 1.07 | – | 0.465 | 0.461 | 0.455 | 0.503 | – | 0.312 | 0.3 | 0.292 | 0.329 | 0.834 | 0.896 | 1.02 | 0.674 |
| NCI-H322M | – | 1.26 | – | 1.3 | 1.34 | – | 0.539 | – | 0.542 | 0.489 | – | 0.8 | – | 0.745 | 0.736 | 0.241 | 0.265 | 0.247 | 0.249 |
| NCI-H441 | – | 0.453 | 0.393 | 0.323 | 0.35 | – | 0.54 | 0.406 | 0.374 | 0.401 | – | 0.609 | 0.609 | 0.334 | 0.588 | 0.633 | 0.565 | 0.627 | 0.697 |
| NCI-H460 | 1.28 | 1.06 | 1.14 | 1.05 | 1.08 | 0.194 | 0.352 | 0.245 | 0.653 | 0.553 | 0.493 | 0.398 | 0.397 | 0.362 | 0.385 | 0.547 | 0.471 | 0.534 | 0.408 |
| NCI-H520 | 0.584 | 0.59 | 0.476 | 0.544 | 0.731 | 0.344 | 0.295 | 0.237 | 0.265 | 0.253 | 0.312 | 0.317 | 0.305 | 0.271 | 0.354 | 0.2 | 0.194 | 0.176 | 0.24 |
| NCI-H596 | 0.6 | 1 | 0.818 | 0.895 | 0.986 | 0.372 | 0.364 | 0.194 | 0.397 | 0.423 | – | 0.68 | 0.675 | 0.651 | 0.752 | 0.672 | 0.579 | 0.56 | 0.57 |
| NCI-H647 | – | 0.778 | 0.789 | 1.19 | 1.03 | – | 0.347 | – | 0.531 | 0.388 | 0.661 | 0.558 | 0.449 | 0.557 | 0.607 | 0.151 | 0.171 | 0.211 | 0.246 |
| NCI-H650 | – | 0.865 | 0.645 | 0.494 | 0.453 | – | 0.977 | 0.878 | 0.688 | 0.661 | – | 0.381 | 0.341 | 0.189 | 0.287 | 0.481 | – | 0.534 | 0.533 |
| NCI-H661 | 0.647 | 0.868 | 0.437 | 0.719 | 0.789 | 0.283 | 0.376 | – | 0.34 | 0.48 | 0.739 | 0.685 | 0.746 | 0.75 | 0.773 | 0.841 | 0.811 | 0.995 | 1.06 |
| NCI-H727 | – | 0.848 | 0.882 | 0.795 | 0.873 | – | 0.476 | 0.36 | 0.444 | 0.401 | 0.554 | 0.656 | – | 0.612 | 0.796 | 0.372 | 0.359 | 0.295 | 0.396 |
| NCI-H838 | 0.74 | 0.973 | 0.417 | 0.715 | 1.09 | 0.394 | 0.563 | 0.421 | 0.447 | 0.385 | 0.772 | 0.792 | 0.735 | 0.68 | 0.873 | 0.348 | 0.285 | 0.304 | 0.339 |
| NCI-H1355 | – | 1.22 | 1.12 | – | 1.29 | – | 0.493 | 0.328 | – | 0.362 | – | 0.763 | 0.769 | 0.639 | 0.718 | 0.883 | 0.679 | 0.683 | 0.818 |
| NCI-H1437 | 0.299 | 0.529 | 0.518 | 0.534 | 0.516 | 0.385 | 0.478 | 0.481 | 0.46 | 0.702 | 0.651 | 0.62 | 0.643 | 0.592 | 0.618 | 0.407 | 0.34 | 0.439 | 0.467 |
| NCI-H1650 | 0.183 | 0.214 | 0.24 | 0.177 | 0.217 | 0.401 | 0.841 | 0.404 | 0.647 | 0.814 | 0.827 | 0.721 | 0.764 | 0.794 | 1.01 | 0.385 | 0.346 | 0.334 | 0.265 |
| NCI-H1651 | 0.857 | 0.887 | 0.972 | 0.946 | 0.862 | 0.534 | 0.58 | 0.559 | 0.554 | 0.596 | 0.177 | 0.186 | 0.176 | 0.147 | 0.165 | 0.395 | 0.456 | 0.359 | 0.544 |
| NCI-H1666 | 0.806 | – | 0.957 | 0.859 | 0.814 | 0.473 | – | 0.474 | 0.387 | 0.448 | 0.783 | 0.753 | 0.776 | 0.746 | 0.799 | 0.765 | – | 0.876 | 0.641 |
| NCI-H1734 | – | 0.936 | 0.549 | 0.757 | 0.828 | – | 0.522 | 0.38 | 0.424 | 0.399 | – | 0.69 | 0.504 | 0.465 | 0.557 | 0.51 | 0.413 | 0.445 | 0.371 |
